Source: publication PMC5557681 (Journal of veterinary cardiology : the official journal of …, 2017)
Where a name gives a salt, the structure may show the parent alone. Read-outs that look alike come from different tables or passages of the source.

Legend:
[1] = Analyte stability during storage in citrate or EDTA treated feline plasma; format: physicochemical; settings: for Time stable at room temperature: EDTA treated feline plasma; for Deviation from nominal concentration (%): EDTA treated plasma, spike CAM-D 100, clopidogrel 38.3, acid 500 ng/mL; for Time stable at −80°C: citrate treated feline plasma; for Time stable at room temperature (abstract) / Time stable at −80°C (abstract): feline plasma
[2] = in vivo, po
[3] = in vivo; settings: po, 18.75 mg
[4] = cited from earlier work
[5] = humans; cited from earlier work
[6] = tested on: feline cardiogenic thromboembolism; settings: cats; cited from earlier work
[7] = tested on: ADP-induced platelet aggregation; settings: cited from earlier work

COC(=O)C(c1ccccc1Cl)N1CCC2SC(=O)C=C2C1.Cl (stereo not shown) [2-oxo-clopidogrel, 2-oxo-clopidogrel hydrochloride]
Stability in feline plasma (in words) ([1]; all storage temperatures tested, EDTA and citrate treated plasma): unstable | Decrease from nominal concentration within 6 hours ([1]; all storage temperatures tested, EDTA treated and citrate treated plasma, data not shown): > 25%

O=C(O)[C@H](c1ccccc1Cl)N1CCc2sccc2C1 [Clopidogrel carboxylic acid, clopidogrel carboxylic acid]
Time stable at room temperature [1]: at least 1 week | Deviation from nominal concentration (%) ([1]; 4°C, 6 h): −6% | Deviation from nominal concentration (%) ([1]; RT, 1 wk): −1% | Deviation from nominal concentration (%) ([1]; RT, 24 h): −2% | Deviation from nominal concentration (%) ([1]; RT, 48 h): −10% | Deviation from nominal concentration (%) ([1]; RT, 72 h): 1% | Time stable at −80°C [1]: at least 9 months | Time stable at room temperature (abstract) [1]: 1 week | Time stable at −80°C (abstract) [1]: 9 months | AUC that was extrapolated [2]: 15–20% | Cmax and AUC values compared with clopidogrel and CAM-D ([2]; 18.75 mg): over 100 fold | Cmax values (range of both cats) ([2]; 18.75 mg): 2,900–3,300 ng/mL | Elimination half-life compared with clopidogrel and CAM-D ([2]; 18.75 mg): about 2 times | Time post administration at which Cmax was reached (both cats) ([2]; 18.75 mg): 1.5 to 2 h

COC(=O)[C@H](c1ccccc1Cl)N1CCc2sccc2C1 [Clopidogrel, S-(+)-clopidogrel hydrogen sulfate, reference compound]
Time stable at room temperature [1]: at least 1 week | Deviation from nominal concentration (%) ([1]; 4°C, 6 h): −7% | Deviation from nominal concentration (%) ([1]; RT, 1 wk): 6% | Deviation from nominal concentration (%) ([1]; RT, 24 h): −2% | Deviation from nominal concentration (%) ([1]; RT, 48 h): −5% | Deviation from nominal concentration (%) ([1]; RT, 72 h): −1% | Time stable at −80°C [1]: at least 9 months | Time stable at room temperature (abstract) [1]: 1 week | Time stable at −80°C (abstract) [1]: 9 months | AUC that was extrapolated ([2]; cat): < 2% | AUClast (0 to 24hrs) ([2]; 18.75 mg): 225 ng·h/mL | Cmax ([2]; 18.75 mg): 144 ng/mL | t1/2 (elimination half-life) ([2]; 18.75 mg): 5.2 h | AUC(0-t) ([3]; AUClast (0 to 24hrs)): 374 ng·h/mL | Cmax ([3]; Cmax): 134 ng/mL | half-life ([3]; t1/2 (elimination half-life)): 5.4 h | Cmax in humans ([4]; healthy humans / people): 20 ng/mL | Tmax in people ([4]; post administration): around 1 hour | Proportion metabolized in the liver to inactive clopidogrel carboxylic acid [5]: 85% | Prevention of feline cardiogenic thromboembolism [6]: superior to aspirin

COC(=O)C(c1ccccc1Cl)N1CCC(S)C(=CC(=O)O)C1 (stereo not shown) [H4]
Antiplatelet activity relative to H2 [7]: about twice the activity of H2
